According to ChEMBL document CHEMBL1127408, “Anti-AIDS agents. 15. Synthesis and anti-HIV activity of dihydroseselins and related analogs” (J Med Chem, 1994):

Tests used:
[1] = (§1) Tested for in vitro therapeutic index as the ratio of IC50 to EC50 in acutely infected H9 Lymphocytes; type: organism-based, Human immunodeficiency virus 1; settings: human immunodeficiency virus 1, H9 lymphocytes acutely infected with HIV-1; read-out: TI
[2] = tested on: Human immunodeficiency virus 1; assay: Anti-HIV activity in acutely infected H9 lymphocytes.; type: functional, organism-based
[3] = tested on: Human immunodeficiency virus 1; assay: as §1; type: organism-based; settings: Human immunodeficiency virus 1
U-937 = assay: Compound was tested for anti-HIV activity in acutely infected U937; type: functional, cell-based; settings: Homo sapiens
[4] = Tested for in vitro therapeutic index as the ratio of IC50 to EC50 in acutely infected U937; type: cell-based, U-937; settings: human, acutely infected U937 cells; read-out: TI
[5] = Tested for in vitro therapeutic index as the ratio of IC50 to EC50 in PBMCs; settings: human, read-out: TI

| SMILES | selectivity ratio [1] | EC50 ([2]; Human immunodeficiency virus 1) [µM] | other results |
| --- | --- | --- | --- |
| CC1(C)Oc2ccc3ccc(=O)oc3c2C(OC(=O)c2cccc(Cl)c2)C1O (stereo not given) | 2.4 | 4.2 |  |
| CC(C)(C)c1ccc(C(=O)OC2c3c(ccc4ccc(=O)oc34)OC(C)(C)C2OC(=O)c2ccc(C(C)(C)C)cc2)cc1 (stereo not given) | > 2.2 | < 1.4 |  |
| CCC(C)C(=O)OC1c2c(ccc3ccc(=O)oc23)OC(C)(C)C1OC(=O)C(C)CC (stereo not given) | 14.4 | 7 |  |
| CC1(C)Oc2ccc3ccc(=O)oc3c2C(N=[N+]=[N-])C1O (stereo not given) | 2.9 | 116 |  |
| CC(C)=CC(=O)OC1c2c(ccc3ccc(=O)oc23)OC(C)(C)C1OC(=O)C=C(C)C (stereo not given) | 3.5 | 4.7 |  |
| CC1(C)Oc2ccc3ccc(=O)oc3c2C(OC(=O)c2cccc(Cl)c2)C1OCc1ccccc1 (stereo not given) | 5 | 3.1 |  |
| COC1C(OC(=O)c2cccc(Cl)c2)c2c(ccc3ccc(=O)oc23)OC1(C)C (stereo not given) | 0.34 | 241 |  |
| CC(=O)OC1c2c(ccc3ccc(=O)oc23)OC(C)(C)C1OCc1ccccc1 (stereo not given) | 2.3 | 38 |  |
| CC(C)CC(=O)OC1C(OC(=O)c2cccc(Cl)c2)c2c(ccc3ccc(=O)oc23)OC1(C)C (stereo not given) | 1.4 | 9.3 |  |
| CC(=O)OC1C(N=[N+]=[N-])c2c(ccc3ccc(=O)oc23)OC1(C)C (stereo not given) | 1 | 116 |  |
| CC(C)[C@H]1CC[C@H](C)C[C@@H]1OC(=O)OC1c2c(ccc3ccc(=O)oc23)OC(C)(C)C1OC(=O)O[C@@H]1C[C@H](C)CC[C@H]1C(C)C (stereo not given in full) | 2.9 | 11.4 |  |
| CC(C)(C)CC(=O)O[C@@H]1c2c(ccc3ccc(=O)oc23)OC(C)(C)[C@@H]1OC(=O)CC(C)(C)C | 2 | 21.8 |  |
| CC1(C)Oc2ccc3ccc(=O)oc3c2C(O)C1OCc1ccccc1 (stereo not given) | 2.7 | 43 |  |
| CC1(C)Oc2ccc3ccc(=O)oc3c2[C@@H](OC(=O)C23CCC(C)(C(=O)O2)C3(C)C)[C@H]1OC(=O)C12CCC(C)(C(=O)O1)C2(C)C (mixture of isomers; 16) |  |  | TI [3]: 136719; EC50 (U-937): 0.0021 µM; EC50 [2]: 4 µM; selectivity ratio [4]: 11700; selectivity ratio [5]: 472 |
| CC1(C)Oc2ccc3ccc(=O)oc3c2[C@@H](OC(=O)C23CCC(C)(C(=O)O2)C3(C)C)[C@H]1OC(=O)C12CCC(C)(C(=O)O1)C2(C)C (mixture of isomers; 17) |  |  | TI [3]: 1.1; EC50 [2]: 145 µM |
| CC1(C)Oc2ccc3ccc(=O)oc3c2C(OC(=O)c2cccc(Cl)c2)C1OC1CCCCO1 (single isomer, unassigned) | 10 | 8.3 |  |
| CC(=O)OC1c2c(ccc3ccc(=O)oc23)OC(C)(C)C1OC(C)=O (stereo in doubt; 8) |  | 69.4 | TI [3]: 0.4 |
| CC(C)CC(=O)OC1c2c(ccc3ccc(=O)oc23)OC(C)(C)C1OC(=O)CC(C)C (stereo in doubt; 9) | 2 |  | EC50 [2]: 7 µM |
| CC(=O)OC1c2c(ccc3ccc(=O)oc23)OC(C)(C)C1OC(C)=O (stereo in doubt; 37) |  |  | TI [3]: 3; EC50 [2]: 43 µM |
| CC1(C)Oc2ccc3ccc(=O)oc3c2C(OC(=O)C23CCC(C)(C(=O)O2)C3(C)C)C1OC(=O)C12CCC(C)(C(=O)O1)C2(C)C (stereo in doubt; 38) | 3 | 24.1 |  |
| CC1(C)Oc2ccc3ccc(=O)oc3c2C(OC(=O)C23CCC(C)(C(=O)O2)C3(C)C)C1OC(=O)C12CCC(C)(C(=O)O1)C2(C)C (stereo in doubt; 39) |  |  | TI [3]: > 5; EC50 [2]: 32 µM |
| CC(C)CC(=O)OC1c2c(ccc3ccc(=O)oc23)OC(C)(C)C1OC(=O)CC(C)C (stereo in doubt; 42) |  |  | TI [3]: 3; EC50 [2]: 20.9 µM |
| C/C=C(\C)C(=O)O[C@@H]1c2c(ccc3ccc(=O)oc23)OC(C)(C)[C@@H]1OC(C)=O [PTERYXIN] | 4.5 | 4.6 |  |
| CC1(C)C=Cc2c(ccc3ccc(=O)oc23)O1 [SESALIN] | 5 | 3.5 |  |
| CC(=O)O[C@@H]1[C@H](OC(=O)CC(C)C)c2c(ccc3ccc(=O)oc23)OC1(C)C [SUKSDORFIN] | 30.6 | 2.6 |  |
| Cc1cn([C@H]2C[C@H](N=[N+]=[N-])[C@@H](CO)O2)c(=O)[nH]c1=O [ZIDOVUDINE] | 12500 | 0.15 |  |
